Experimental data: patent US9040500B2, “Method for treating hematopoietic neoplasms” (priority 2007, dated 2015)

How the values were obtained:
[1] = test system: tubulin; settings: cited from earlier work
[2] = test system: subcutaneous HL60 tumors; test: Subcutaneous in vivo leukemia model (Example 1); design: species or system athymic nu/nu mice; settings: for tumor volume / tumor growth versus control (PBS): CA1dP or CA4P 75 mg/kg/inj, Ara-C 20 mg/kg/inj, HL60 s.c. in nu/nu mice
Protocol: (§1) HL60 (1×10^7 cells in 0.1 ml) were injected subcutaneously into the dorsa of 4-6 week old athymic nu/nu mice (Southern Research Institute). When palpable tumors were evident (average tumor volume 100 mm^3; i.e. approximately 12 days after inoculation), 6 experimental groups of mice were randomized, each with 10 animals. Treatment was initiated according to the following regimens:
Tumor volume was measured three times a week until the endpoint was reached (tumor volume >3000 mm^3), or for 90 days post-treatment.

[3] = test system: subcutaneous HL60 tumors; test: Dose response activity in subcutaneous HL60 model (Example 2); format: in vivo, athymic nu/nu mice
Protocol: as §1, with “inoculation), ten” for “inoculation), 6”
Tumor volume was measured three times per week.

[4] = test system: leukemic cells; test: Leukemic cell proliferation and cell death in vitro; format: cell-based; settings: low and non-toxic doses
[5] = test system: intracellular reactive oxygen species (ROS); test: Intracellular reactive oxygen species in leukemic cells; format: cell-based
[6] = test system: subcutaneous solid tumors; settings: concentrations well below the maximum tolerated dose; cited from earlier work
[7] = CA1dP 75 mg/kg/inj with addition of Ara-C 20 mg/kg/inj
[8] = subcutaneous mouse models of AML, single agent (introduction summary)
[9] = CA1dP combined with araC 20 mg/kg/inj

SMILES: COc1ccc(/C=C\c2cc(OC)c(OC)c(OC)c2)c(O)c1O [Combretastatin A-1]
- affinity for tubulin at the colchicine site, relative to colchicine [1]: higher affinity

SMILES: Nc1ccn([C@@H]2O[C@H](CO)[C@@H](O)[C@@H]2O)c(=O)n1 [Ara-C, cytosine arabinoside, reference compound]
- tumor volume / tumor growth versus control (PBS) ([2]; single agent): little improvement

SMILES: COc1cc(/C=C\c2ccc(OC)c(OP(=O)(O)O)c2OP(=O)(O)O)cc(OC)c1OC [CA1dP, combretastatin A-1 diphosphate]
- complete regressions out of ten treated mice [2, 7]: six
- tumor volume versus CA1dP alone [2, 7]: further decreased tumor volumes
- tumor load with co-administered chemotherapeutic agent ([2]; co-administration of AraC (introduction summary)): decreases tumor load even further
- complete tumor regressions in a population of ten treated mice ([2]; single agent, 75 mg/kg/inj Q7D x 2): five
- tumor volume / tumor growth versus control (PBS) ([2]; single agent): substantial decreases in tumor volume
- survival of treated mice [2, 8]: significantly prolonged survival
- tumor load of treated mice [2, 8]: significantly decreased tumor load
- decrease in tumor volume relative to dose ([3]; CA1dP 2.5, 10, 25, 75 mg/kg/inj, day 3 and 10): clear dose response relationship
- duration of tumor growth inhibition, combination versus CA1dP alone [3, 9]: longer growth inhibition
- number of complete responses, combination versus CA1dP alone [3, 9]: not significantly altered
- anti-tumor activity ([3]; doses of CA1dP above 2.5 mg/kg): significant anti-tumor activity
- leukemic cell proliferation in vitro [4]: inhibit leukemic cell proliferation in vitro
- mitotic arrest and cell death of leukemic cells [4]: induce mitotic arrest and cell death
- intracellular reactive oxygen species (ROS) [5]: rapidly increases intracellular reactive oxygen species
- microtubule depolymerization and vascular shutdown causing tumor necrosis [6]: induces rapid microtubule depolymerization and vascular shutdown

SMILES: COc1ccc(/C=C\c2cc(OC)c(OC)c(OC)c2)cc1OP(=O)(O)O [CA4P, combretastatin A-4 phosphate, reference compound]
- life span versus controls ([2]; single agent, 75 mg/kg/inj): extended life span
- tumor volume / tumor growth versus control (PBS) ([2]; single agent): delayed tumor growth
